Source: paper PMC6009892, “A novel series of pyrazole-platinum(II) complexes as potential anti-cancer agents that induce cell cycle arrest and apoptosis in breast cancer cells” (Journal of Enzyme Inhibition and Medicinal Chemistry, 2018)
Like-named read-outs stand apart in the source and are kept apart here.

Legend:
Type in all cases: cell-based, human
[1] = tested on: caspase-8 in MCF-7 breast cancer cells; test: FLICA caspase-8 activity, flow cytometry, MCF-7; settings: MCF-7, 20 μM, 24 h
Description: (§1) Caspase-8 activity was measured using the FLICA Caspase 8 Assay Kit (ImmunoChemistry Technologies, Bloomington, MN, USA), according to the manufacturer’s instructions. Briefly, cultured MCF-7 and MDA-MB-231 breast cancer cells (1 × 10^6) were washed with cold PBS twice and re-suspended in buffer. We added 5 µl of diluted FLICA reagent and 2 µl of Hoechst 33342 to 93 µl of cell suspension and mixed by pipetting. The cells were incubated for 60 min at 37°C. After incubation, the cells were washed twice in 400 µl of apoptosis wash buffer and centrifuged at 300 × g. After the last wash, we re-suspended the cells in 100 µl of apoptosis wash buffer supplemented with 10 µg/ml PI. Analysis was performed using the BD FACSCanto II flow cytometer, and the results were analysed with FACSDiva software (both from BD Biosciences Systems, San Jose, CA).

[2] = tested on: MCF-7 breast cancer cells; test: MTT cell viability assay, MCF-7
Description: (§2) MCF-7, MDA-MB-231 (both human breast cancer cell lines), and fibroblast cells were obtained from American Type Culture Collection (ATCC, Manassas, VA, USA). DMEM and FBS used in a cell culture were from Gibco (USA). Glutamine, penicillin, and streptomycin were obtained from Quality Biologicals Inc. (USA). DMEM media was blended with 50 units/ml of penicillin, 50 μg/ml of streptomycin, 10% of FBS. All cell lines were cultured in 5% CO2 and fully humidified at 37 °C. Cells were cultured in Costar flasks and sub-confluent cells were detached with 0.05% trypsin and 0.02% ethylenediaminetetraacetic acid in calcium-free phosphate-buffered saline (PBS), counted in hemocytometers, and plated at 5 × 10^5 cells/well of six-well plates (Thermo Scientific, New York, NY, USA) in 2 ml of growth medium (DMEM without phenol red with 10% CPSR1). Cells reached about 80% of confluency at day 2, and in most cases such cells were used for the assays.
(§3) The viability of cultured cells was decided through assaying the reduction of MTT to formazan. In brief, MCF-7, MDA-MB-231, and fibroblast cells line were seeded at an initial density of 1 × 10^5 cells per well. Then, the cells were incubated at 37 °C for 24 h. Subsequently, cultured cells were treated with a medium containing concentrations (5, 10, 20, 30, 40, and 50 μM) of PtPz1–PtPz6 for 24 h and 48 h. After the incubation period, MTT was added into all wells in the final concentration of 0.5 mg/ml. After that, the cells were incubated at 37 °C for 4 h. Then, by removing the medium, 200 μl of DMSO was added to all wells. As a result, insoluble formazan was dissolved in DMSO (0.5%). At 570 nm (630 nm as a reference), the absorbance was measured in an Evolution 201 reader (Thermo Scientific, Waltham, MA).

[3] = tested on: MCF-7 breast cancer cells; test: DNA fragmentation TUNEL assay, MCF-7; settings: MCF-7, 20 μM, 24 h; control 4.0%
Description: (§4) DNA fragmentation associated with apoptosis was examined by the terminal deoxynucleotidyltransferase (TdT)- mediated dUTP nick end labeling (TUNEL) method using a commercial assay kit (APO-Direct Kit; BD Pharmingen, San Diego, CA). After treatment, the cells were fixed with 1% paraformaldehyde in PBS (4°C, 30 min), washed in PBS, and permeabilised with ice-cold 70% ethanol. The APO-Direct Kit TUNEL assay was performed as described by the manufacturer. Briefly, the fixed cells were washed twice using the kit wash buffer, and after centrifugation the supernatant was discarded. The DNA labeling solution (containing TdT enzyme and FITC-dUTP) was added to the cell pellet, and the re-suspended mixture was incubated for 1 h at 37°C with occasional shaking. At the end of incubation time, rinse buffer was added, and after centrifugation the supernatant was discarded. We repeated the cell rinsing with rinse buffer, and then suspended the cell pellet in PI/RNase staining buffer. Cells were incubated at room temperature for 30 min and immediately analysed in a BD FACSCanto II flow cytometer. In total, 10,000 events were collected per test sample. The results were analysed with FACSDiva software (both from BD Biosciences Systems, San Jose, CA). The percentage of cells with distinctive apoptotic DNA strand breaks and distinguished by green fluorescent emission was calculated.

[4] = tested on: caspase-9 in MDA-MB-231 breast cancer cells; test: FLICA caspase-9 activity, flow cytometry, MDA-MB-231; settings: MDA-MB-231, 20 μM, 24 h
Description: as §1, with “Caspase-9” for “Caspase-8”, “9” for “8”, “re-suspended” for “re-suspended the”

[5] = tested on: caspase-3 in MDA-MB-231 breast cancer cells; test: FLICA caspase-3 activity, flow cytometry, MDA-MB-231; settings: MDA-MB-231, 20 μM, 24 h
Description: as §1, with “Caspase-3” for “Caspase-8”, “3” for “8”, “cultured” for “cultured MCF-7 and”

[6] = tested on: MDA-MB-231 breast cancer cells; test: DNA fragmentation TUNEL assay, MDA-MB-231; settings: MDA-MB-231, 20 μM, 24 h
Description: as §4

[7] = tested on: caspase-9 in MCF-7 breast cancer cells; test: FLICA caspase-9 activity, flow cytometry, MCF-7; settings: MCF-7, 20 μM, 24 h
Description: as §1, with “Caspase-9” for “Caspase-8”, “9” for “8”, “re-suspended” for “re-suspended the”

[8] = tested on: MDA-MB-231 breast cancer cells; test: MTT cell viability assay, MDA-MB-231
Description: as §2, §3

[9] = MCF-7, 24 h incubation, 5-50 μM, read-out: IC50 (cell viability, MTT)
[10] = MCF-7, 48 h incubation, 5-50 μM, read-out: IC50 (cell viability, MTT)
[11] = MDA-MB-231, 24 h incubation, 5-50 μM, read-out: IC50 (cell viability, MTT)
[12] = MDA-MB-231, 48 h incubation, 5-50 μM, read-out: IC50 (cell viability, MTT)

Row | Compound | IC50 [2, 9] | IC50 [2, 10] | IC50 [8, 11] | IC50 [8, 12] | increase in caspase-8 activity compared with the control [1] | percent of cells with active caspase-8 [1] | percent of TUNEL positive cells [3] | percent of cells with active caspase-9 [4] | increase in caspase-3 activity compared with untreated cells [5] | percent of cells with active caspase-3 [5] | percent of TUNEL positive cells [6] | percent of cells with active caspase-9 [7] | IC50 ([2]; read-out: IC50 (additional test for cisplatin), MCF-7, 24 h, additional test in concentrations allowing to determine IC50) | IC50 ([2]; read-out: IC50 (additional test for cisplatin), MCF-7, 48 h, additional test in concentrations allowing to determine IC50) | IC50 ([8]; read-out: IC50 (additional test for cisplatin), MDA-MB-231, 24 h, additional test in concentrations allowing to determine IC50) | IC50 ([8]; read-out: IC50 (additional test for cisplatin), MDA-MB-231, 48 h, additional test in concentrations allowing to determine IC50)
1 | Cc1ccn[nH]1.Cc1ccn[nH]1.Cc1ccn[nH]1.Cc1ccn[nH]1.Cl.Cl.Cl.Cl.N=C(N)c1ccc(N=N[N]([Pt])c2ccc(C(=N)N)cc2)cc1.N=C(N)c1ccc(N=N[N]([Pt])c2ccc(C(=N)N)cc2)cc1.O.O [PtPz5, [Pt2(5-methylpyrazole)4(berenil)2]·4HCl·2H2O] | 28 ± 2 µM | 22 ± 2 µM | 29 ± 1 µM | 19 ± 2 µM |  | 46.1% | 32.1% | 38.6% |  | 21.0% | 31.6% | 39.6% |  |  |  | 
2 | CCn1ccc[n+]1[Pt-2]1([n+]2cccn2CC)[N](c2ccc(C(=N)N)cc2)N=[N+](c2ccc(C(=N)N)cc2)[Pt-2]([n+]2cccn2CC)([n+]2cccn2CC)[N](c2ccc(C(=N)N)cc2)N=[N+]1c1ccc(C(=N)N)cc1.Cl.Cl.Cl.Cl.O.O [PtPz6, [Pt2(N-ethylpyrazole)4(berenil)2]·4HCl·2H2O] | > 50 µM | 48 ± 2 µM | > 50 µM | 39 ± 2 µM |  | 21.0% | 14.2% | 24.6% |  | 11.0% | 13.2% | 24.1% |  |  |  | 
3 | N.N.[Cl][Pt][Cl] [cisplatin, reference compound] | > 50 µM | > 50 µM | > 50 µM | > 50 µM |  | 7.1% | 10.9% | 7.3% |  | 6.4% | 8.9% | 8.2% | 93 ± 2 µM | 78 ± 1 µM | 82 ± 2 µM | 72 ± 1 µM

Second part, led by results:

Row | IC50 [2, 9] | IC50 [2, 10] | IC50 [8, 11] | IC50 [8, 12] | Compound | increase in caspase-8 activity compared with the control [1] | percent of cells with active caspase-8 [1] | percent of TUNEL positive cells [3] | percent of cells with active caspase-9 [4] | increase in caspase-3 activity compared with untreated cells [5] | percent of cells with active caspase-3 [5] | percent of TUNEL positive cells [6] | percent of cells with active caspase-9 [7] | IC50 ([2]; read-out: IC50 (additional test for cisplatin), MCF-7, 24 h, additional test in concentrations allowing to determine IC50) | IC50 ([2]; read-out: IC50 (additional test for cisplatin), MCF-7, 48 h, additional test in concentrations allowing to determine IC50) | IC50 ([8]; read-out: IC50 (additional test for cisplatin), MDA-MB-231, 24 h, additional test in concentrations allowing to determine IC50) | IC50 ([8]; read-out: IC50 (additional test for cisplatin), MDA-MB-231, 48 h, additional test in concentrations allowing to determine IC50)
4 | 17 ± 2 µM | 11 ± 1 µM | 16 ± 1 µM | 10 ± 1 µM | Cc1cc(C)[n+]([Pt-2]2([n+]3c(C)cc(C)n3CO)[N](c3ccc(C(=N)N)cc3)N=[N+](c3ccc(C(=N)N)cc3)[Pt-2]([n+]3c(C)cc(C)n3CO)([n+]3c(C)cc(C)n3CO)[N](c3ccc(C(=N)N)cc3)N=[N+]2c2ccc(C(=N)N)cc2)n1CO.Cl.Cl.Cl.Cl.O.O [PtPz1, [Pt2(N-hydroxymethyl-3,5-dimethylpyrazole)4(berenil)2]·4HCl·2H2O] | ~12 fold | 56.2% | 55.7% | 47.9% | nine-fold increase | 30.6% | 58.3% | 52.8% |  |  |  | 
5 | 20 ± 2 µM | 13 ± 2 µM | 17 ± 2 µM | 11 ± 1 µM | Cc1cc(C)[n+]([Pt-2]2([n+]3[nH]c(C)cc3C)[N](c3ccc(C(=N)N)cc3)N=[N+](c3ccc(C(=N)N)cc3)[Pt-2]([n+]3[nH]c(C)cc3C)([n+]3[nH]c(C)cc3C)[N](c3ccc(C(=N)N)cc3)N=[N+]2c2ccc(C(=N)N)cc2)[nH]1.Cl.Cl.Cl.Cl.O.O [PtPz2, [Pt2(3,5-dimethylpyrazole)4(berenil)2]·4HCl·2H2O] | ~12 fold | 56.2% | 47.5% | 46.5% | nine-fold increase | 28.9% | 55.8% | 50.5% |  |  |  | 
6 | 23 ± 1 µM | 18 ± 1 µM | 20 ± 2 µM | 16 ± 1 µM | Cc1c[nH][n+]([Pt-2]2([n+]3[nH]cc(C)c3C)[N](c3ccc(C(=N)N)cc3)N=[N+](c3ccc(C(=N)N)cc3)[Pt-2]([n+]3[nH]cc(C)c3C)([n+]3[nH]cc(C)c3C)[N](c3ccc(C(=N)N)cc3)N=[N+]2c2ccc(C(=N)N)cc2)c1C.Cl.Cl.Cl.Cl.O.O [PtPz3, [Pt2(3,4-dimethylpyrazole)4(berenil)2]·4HCl·2H2O] |  | 48.3% | 46.5% | 41.1% |  | 22.9% | 50.4% | 43.4% |  |  |  | 
